Data taken from patent US10688194B2, “Cell penetrating peptides for intracellular delivery of molecules” (AADIGEN, LLC, priority 2012, dated 2020).
Like-named read-outs stand apart in the source and are kept apart here. Ends that are not written are not given here.

Columns and labels:
Cyclic peptide (PC4) = test: Fluorescence titration, VEPEP-3/cargo binding: cyclic peptide; conditions: cargo: Cyclic peptide (PC4)
Protocol: (§1) Fluorescence experiments were performed on a PTI spectrofluorimeter at 25° C. in a NaCl 154 mM buffer. Intrinsic Trp-fluorescence of VEPEP-3 was excited at 290 nm and emission spectrum was recorded between 310 and 400 nm, with a spectral band-pass of 2 and 8 nm for excitation and emission, respectively. FITC-fluorescence of labelled-peptide was excited at 492 nm and emission recorded between 500 and 580 nm. For VEPEP-3/peptide interaction, 0.5 μM of FITC-labelled peptide was titrated by increasing concentrations of VEPEP-3. All measurements were corrected for the dilution and curve fitting were performed by using Grafit software (Erithacus).
(§2) VEPEP-3 peptide form stable complexes with peptides and proteins. The binding of cargos to VEPEP-3 was monitored by fluorescence spectroscopy using the […] intrinsic Trp groups of VEPEP-3 (3 to 5 Trp-residues) and extrinsic fluorescently labelled cargoes (using Cy3, Cy5 or FITC). Curve fitting reveal that VEPEP-3 strongly binds the different cargoes with dissociation constant in the nanomolar range (examples with VEPEP-3a, VEPEP-3C, and VEPEP-3g and three different cargoes are reported in FIGS. 1A-1C, all the data are reported in Table 1).

HeLa and U2OS cells = test: Toxicity of VEPEP-3 particles, MTT assay and cyclophilin mRNA level; conditions: complexed with short peptide and PNA at ratio 1/20
Protocol: Toxicity of VEPEP-3/peptide or VEPEP-3/protein complexes was investigated on Hela and HS-68 cell lines. 30,000 cells seeded in 24-well plated the day prior transfection, were incubated with increasing concentrations of peptide or protein complexed with VEPEP-3 at a 20/1 molar ratio ranging from 1 to 5 μM ([…]), for 30 min prior to addition of medium to reach a final 10% concentration of FCS. Cytotoxic response was measured 12 hr or 24 hr later by monitoring the housekeeping gene cyclophilin mRNA level (Quantigen, Panomic Inc.) and by colorimetric MTT assay (Sigma, Germany), respectively. For MTT assay, cell culture medium was removed and replaced with PBS containing 2.5 mg/ml of MTT for 4 hr. Results correspond to the average of 3 separate experiments.

PNA (15 mer-PNA) = test: Fluorescence titration, VEPEP-3/cargo binding: PNA; conditions: cargo: 15 mer-PNA
Protocol: as §1
(§3) VEPEP-3 peptides also form stable particles with small aromatic molecules including Daunomycin, Paclitaxel, doxorubicin, porphyrin and charged molecules including nucleotide, nucleoside and peptide-analog of nucleic acids or fluorescent dyes (FIGS. 1A-1C). The dissociation constant for small hydrophobic molecule ranges between 0.05 to 2 μM, depending on the nature of the dyes and of the peptides.

[1] = Fluorescence titration, VEPEP-3/cargo binding: small hydrophobic molecule; conditions: cargo: Doxorubicine; for Kd: read-out: Kd, SHM
Protocol: as §1, §3

protein (GFP & Nanobody) = test: Fluorescence titration, VEPEP-3/cargo binding: protein; conditions: cargo: protein (GFP & Nanobody)
Protocol: as §1, §2

Peptide (C4 and C2) = test: Fluorescence titration, VEPEP-3/cargo binding: peptide
Protocol: as §1, §2

HIV-1-LAI = type: cell-based; conditions: for anti viral activity: scrambled peptides; for IC50: -LAI; for fold higher antiviral activity than AZT: associated to the carrier peptide VEPEP-3
Protocol: (§4) Adherent HS68 fibroblasts, HeLa, PC3, MCF-7, SCK3-Her2, PBMC cell lines (from American Type Culture Collection (ATCC)) were cultured in Dulbecco's Modified Eagle's Medium supplemented with 2 mM glutamine, 1% antibiotics (streptomycin 10,000 μg/ml, penicillin, 10,000 IU/ml) and 10% (w/v) foetal calf serum (FCS), at 37° C. in a humidified atmosphere containing 5% CO2. Stock solutions of VEPEP-3/peptide particles were prepared by complexing 1 μM peptide with VEPEP-3 peptides at a molar ratio of 1/20 for 30 min at 37° C. Lower concentrations of VEPEP-3-carrier/peptide (from 500 nM to […]) were obtained by serial dilution of the stock complexes in PBS, in order to preserve the same VEPEP-3-carrier/peptide ratio. 150,000 cells seeded in a 35 mm dish the day prior transfection, were grown to 60% confluence and overlaid with 200 μl of preformed complexes, incubated for 3-5 min, then 400 μl of DMEM were added. After 30 min. incubation at 37° C., 1 ml of fresh DMEM containing 16% foetal calf serum (FCS) was added in order to reach a final FCS concentration of 10%, without removing the overlay of VEPEP-3/peptide complexes. Cells were returned to the incubator for 24 hrs. For cdk4 and CDK2 derived peptides cell proliferation was monitored after 24 and 48 hrs. For peptide-targeting integrase, HIV proliferation was analyzed on activated PBMC cells after 3 and 5 days. Data reported are an average of 3 or 4 distinct experiments.
The anti-HIV activities of the peptides (PC4D, PC6D & PC4S) and VEPEP-3/peptides were assayed according to previously described method (Roisin et al, 2004). Phytohemagglutinin-P (PHA-P)-activated peripheral blood mononuclear cells (PBMC) treated by increasing concentrations of peptide (from 100 to 0.1 nM), one hour later, were infected with hundred 50% tissue culture infectious doses (TCID50) per 100,000 cells of the HIV-1-LAI or different resistant strains (Barre-Sinoussi et al, 1983). Viruses were amplified in vitro on PHA-P-activated PBMC. Viral stock was titrated using PHA-P-activated PBMC, and 50% TCID50 were calculated using Karber's formula (Karber 1931). Samples were maintained throughout the culture, and cell supernatants were collected at day 7 post-infection and stored at −20 C. Viral replication was measured by quantifying RT activity in cell culture supernatants. In parallel, cytotoxicity of the compounds was evaluated in uninfected PHA-P-activated PBMC by colorimetric 3-(4-5 dimethylthiazol-2-yl)2,5 diphenyl tetrazolium bromite (MTT) assay on day 7 (Mossmann 1983). Experiments were performed in triplicate and repeated with another blood donor. Data analyses were performed using SoftMax® Pro 4.6 microcomputer software: percent of inhibition of RT activity or of cell viability were plotted vs. concentration and fitted with quadratic curves; 50% effective doses (ED50) and cytotoxic doses (CD50) were calculated.

Hela [2] = type: cell-based
Protocol: as §4, with “Data reported are an average of 3 or 4 distinct experiments.” left out

MDA_MB cells = type: cell-based
[3] = tested on: Hela, MCF7, HEK-2, HS-68 and U2OS cells; test: Cell proliferation after VEPEP-3 mediated delivery of C2/C4, several lines; type: cell-based; conditions: delivered by VEPEP-3
Protocol: as §4, with “Data reported are an average of 3 or 4 distinct experiments.” left out

Hela [4] = type: cell-based; remark: listed apart in the source
Protocol: as §4
(§5) A peptide C2 or C4 concentration of 200 nM was sufficient to block proliferation of Hela, MCF7, HEK-2, HS-68 and U2OS cells.

MCF7 [5] = type: cell-based
Protocol: as §4, §5

HEK-2 = type: cell-based
Protocol: as §4, §5

MCF7 [6] = test: Inhibition of cancer cell proliferation by delivered small molecule drugs; type: cell-based; conditions: Homo sapiens
Protocol: (§6) Adherent HS68 fibroblasts, HeLa, PC3, MCF-7, SCK3-Her2, PBMC cell lines (from American Type Culture Collection (ATCC)) were cultured in Dulbecco's Modified Eagle's Medium supplemented with 2 mM glutamine, 1% antibiotics (streptomycin 10,000 μg/ml, penicillin, 10,000 IU/ml) and 10% (w/v) foetal calf serum (FCS), at 37° C. in a humidified atmosphere containing 5% CO2. […] 150,000 cells seeded in a 35 mm dish the day prior transfection, were grown to 60% confluence and overlaid with 200 μl of preformed complexes, incubated for 3-5 min, then 400 μl of DMEM were added. After 30 min. incubation at 37° C., 1 ml of fresh DMEM containing 16% foetal calf serum (FCS) was added in order to reach a final FCS concentration of 10%, without removing the overlay of VEPEP-3/peptide complexes. Cells were returned to the incubator for 24 hrs. […] Data reported are an average of 3 or 4 distinct experiments.

SKB3 = test: as above; type: cell-based
Protocol: as §6

[7] = drug complexed with VEPEP-3a 1/20, read-out: VEPEP-3a 1/20 IC50
[8] = drug complexed with VEPEP-3g 1/20, read-out: VEPEP-3g 1/20 IC50
[9] = SKB3, drug complexed with VEPEP-3a 1/20, read-out: VEPEP-3a 1/20 IC50
[10] = SKB3, drug complexed with VEPEP-3g 1/20, read-out: VEPEP-3g 1/20 IC50
[11] = SKB3, free drug, read-out: Free drug IC50

Row | Compound | Binding, Cyclic peptide (Cyclic peptide (PC4)) | toxicity (HeLa and U2OS cells; levels up to 200 nM) | toxicity (HeLa and U2OS cells; maximum concentration of 1 μM) | Binding, PNA (PNA (15 mer-PNA)) | Binding, SHM [1] | Kd [1] | Binding, Protein (protein (GFP & Nanobody)) | Kd (protein (GFP & Nanobody)) | Binding, peptide (Peptide (C4 and C2)) | Kd (Peptide (C4 and C2)) | also measured
1 | X1RWYEKWYTEFPRRRR [VEPEP-3d] | yes | No toxicity | mild toxicity | Yes | Yes | 100 nM | Yes | 100 nM | yes | 10 to 20 nM | Kd (PNA (15 mer-PNA)): 100 nM
2 | X1LWWSRWWRSWFRLWFR [VEPEP-3g] | yes | No toxicity | mild toxicity | Yes | Yes | 20 nM | Yes | 20 to 100 nM | yes | 10 to 20 nM | 
3 | KAETWAET (HELM PEPTIDE1{[ac].K.A.E.T.W.A.E.T.[SCCN[*:1]]}$$$$V2.0; SMILES CC(=O)N[C@@H](CCCCN)C(=O)N[C@@H](C)C(=O)N[C@@H](CCC(=O)O)C(=O)N[C@H](C(=O)N[C@@H](Cc1c[nH]c2ccccc12)C(=O)N[C@@H](C)C(=O)N[C@@H](CCC(=O)O)C(=O)N[C@H](C(=O)NCCS)[C@@H](C)O)[C@@H](C)O) [PC6S] |  |  |  |  |  |  |  |  |  |  | anti viral activity (HIV-1-LAI): do not show any anti viral activity
4 | KKQVLAMEHLVT [C2, KKQVLAMEHLVT] |  |  |  |  |  |  |  |  |  |  | IC50 (Hela [2]): 36 ± 21 nM; IC50 (MDA_MB cells): 46 ± 14 nM; peptide concentration sufficient to block proliferation [3]: 200 nM; IC50 (Hela [4]): 37 ± 15 nM; IC50 (MCF7 [5]): 67 ± 15 nM; IC50 (HEK-2): 102 ± 24 nM
5 | X1LWWRRWWSRWWPRWRR [VEPEP-3f] | yes | No toxicity | mild toxicity | Yes | Yes | 20 nM | Yes | 20 to 100 nM | yes | 10 to 20 nM | 
6 | RWTEWEWW [PC4D, RWTEWEWW] |  |  |  |  |  |  |  |  |  |  | IC50 (HIV-1-LAI): 0.12 ± 0.05 nM; fold higher antiviral activity than AZT (HIV-1-LAI): 15 fold
7 | COc1cccc2c1C(=O)c1c(O)c3c(c(O)c1C2=O)C[C@@](O)(C(=O)CO)C[C@@H]3O[C@H]1C[C@H](N)[C@H](O)[C@H](C)O1 [Doxo, doxorubicin] |  |  |  |  |  |  |  |  |  |  | IC50 (MCF7 [6]; [7]): 200 nM; IC50 (MCF7 [6]; drug complexed with VEPEP-3c 1/20, read-out: VEPEP-3c 1/20 IC50): 500 nM; IC50 (MCF7 [6]; [8]): 200 nM; IC50 (MCF7 [6]; free drug, read-out: Free drug IC50): 7000 nM; IC50 (SKB3; [9]): 300 nM; IC50 (SKB3; SKB3, drug complexed with VEPEP-3c 1/20, read-out: VEPEP-3c 1/20 IC50): 400 nM; IC50 (SKB3; [10]): 200 nM; IC50 (SKB3; [11]): 10000 nM; fold more efficient when complexed with VEPEP-3 (SKB3; complexed versus free): 25 fold; IC50 (SKB3; text of b118, cell line not stated, values match SKB3 line of Table 4, read-out: IC50, proliferation of cancer cells): 10000 nM
8 | X1KWWERWWREWPRKRK [VEPEP-3b] | yes | No toxicity | mild toxicity | Yes | Yes | 500 nM | Yes | 500 nM | yes | 10 to 20 nM | Kd (PNA (15 mer-PNA)): 200 nM
9 | KWETWWET [PC6D, KWETWWET] |  |  |  |  |  |  |  |  |  |  | IC50 (HIV-1-LAI): 0.09 ± 0.05 nM; fold higher antiviral activity than AZT (HIV-1-LAI): 15 fold
10 | X1RWWRLWWRSWFRLWRR [VEPEP-3e] | yes | No toxicity | mild toxicity | Yes | Yes | 20 nM | Yes | 20 to 100 nM | yes | 10 to 20 nM | 
11 | X1RWWEKWWTRWPRKRK [VEPEP-3c] | yes | No toxicity | mild toxicity | Yes | Yes | 200 nM | Yes | 200 nM | yes | 10 to 20 nM | Kd (PNA (15 mer-PNA)): 200 nM
12 | TWFTEWFT (HELM PEPTIDE1{[ac].T.W.F.T.E.W.F.T.[SCCN[*:1]]}$$$$V2.0; SMILES CC(=O)N[C@H](C(=O)N[C@@H](Cc1c[nH]c2ccccc12)C(=O)N[C@@H](Cc1ccccc1)C(=O)N[C@H](C(=O)N[C@@H](CCC(=O)O)C(=O)N[C@@H](Cc1c[nH]c2ccccc12)C(=O)N[C@@H](Cc1ccccc1)C(=O)N[C@H](C(=O)NCCS)[C@@H](C)O)[C@@H](C)O)[C@@H](C)O) [PC4S] |  |  |  |  |  |  |  |  |  |  | anti viral activity (HIV-1-LAI): do not show any anti viral activity
13 | KKQVRMAHLVLT [C4, KKQVRMAHLVLT] |  |  |  |  |  |  |  |  |  |  | IC50 (Hela [2]): 36 ± 21 nM; IC50 (MDA_MB cells): 46 ± 14 nM; peptide concentration sufficient to block proliferation [3]: 200 nM; IC50 (Hela [4]): 35 ± 12 nM; IC50 (MCF7 [5]): 58 ± 6 nM; IC50 (HEK-2): 78 ± 10 nM
14 | CC(=O)O[C@H]1C(=O)[C@@]2(C)[C@H]([C@H](OC(=O)c3ccccc3)[C@]3(O)C[C@H](OC(=O)[C@H](O)[C@@H](NC(=O)c4ccccc4)c4ccccc4)C(C)=C1C3(C)C)[C@]1(OC(C)=O)CO[C@@H]1C[C@@H]2O [Taxol, taxol] |  |  |  |  |  |  |  |  |  |  | IC50 (MCF7 [6]; [7]): 200 nM; IC50 (MCF7 [6]; [8]): 700 nM; IC50 (SKB3; [9]): 500 nM; IC50 (SKB3; [10]): 800 nM; IC50 (SKB3; [11]): 9000 nM
